Key:
Assay type in all cases: cell-based
[1] = test system: microfilariae of Dirofilaria immitis; assay: Dirofilaria immitis, Microfilaria (DiMF) In vitro Assay; conditions: 72 h, read-out: DiMF Minimum Effective Dose (MED), approximately 72 hours incubation, microfilariae assessed for survival or paralysis
[2] = test system: third stage larvae of Haemonchus contortus; assay: Haemonchus contortus L3 (HcL3) Assay; conditions: 96 h, read-out: HcL3 Minimum Effective Dose (MED)
[3] = test system: 4th stage larvae (L4) of Dirofilaria immitis; assay: Dirofilaria immitis, L4 Stage (DiL4) In Vitro Assay; conditions: Dirofilaria immitis, 72 h, read-out: DiL4 Minimum Effective Dose (MED), approximately 72 hours incubation; L4 larvae assessed for survival or paralysis

Row | Compound | minimal effective concentration [1] | minimal effective concentration [2] | minimal effective concentration [3]
1 | CC(C)C[C@H]1C(=O)O[C@H](Cc2ccc(Cn3ccc(N)n3)cc2)C(=O)N(C)[C@@H](CC(C)C)C(=O)O[C@H](C)C(=O)N(C)[C@@H](CC(C)C)C(=O)O[C@H](Cc2ccc(Cn3ccc(N)n3)cc2)C(=O)N(C)[C@@H](CC(C)C)C(=O)O[C@H](C)C(=O)N1C [Example 1b-143, (3S,6R,9S,12R,15S,18R,21S,24R)-6,18-bis(4-((3-amino-1H-pyrazol-1-yl)methyl)benzyl)-3,9,15,21-tetraisobutyl-4,10,12,16,22,24-hexamethyl-1,7,13,19-tetraoxa-4,10,16,22-tetraazacyclotetracosan-2,5,8,11,14,17,20,23-octaone] | 0.001 to 0.01 µM | 1 to 10 µM | 0.001 to 0.01 µM
2 | CC(C)C[C@H]1C(=O)O[C@H](Cc2ccc(Cn3ccc(OC(C)C)n3)cc2)C(=O)N(C)[C@@H](CC(C)C)C(=O)O[C@H](C)C(=O)N(C)[C@@H](CC(C)C)C(=O)O[C@H](Cc2ccc(Cn3ccc(OC(C)C)n3)cc2)C(=O)N(C)[C@@H](CC(C)C)C(=O)O[C@H](C)C(=O)N1C [Example 1b-151, (3S,6R,9S,12R,15S,18R,21S,24R)-3,9,15,21-tetraisobutyl-6,18-bis(4-((3-isopropoxy-1H-pyrazol-1-yl)methyl)benzyl)-4,10,12,16,22,24-hexamethyl-1,7,13,19-tetraoxa-4,10,16,22-tetraazacyclotetracosan-2,5,8,11,14,17,20,23-octaone] | 0.001 to 0.01 µM | ≤ 1 µM | 0.0001 to 0.001 µM
3 | CCc1ccnn1Cc1ccc(C[C@H]2OC(=O)[C@H](CC(C)C)N(C)C(=O)[C@@H](C)OC(=O)[C@H](CC(C)C)N(C)C(=O)[C@@H](Cc3ccc(Cn4nccc4CC)cc3)OC(=O)[C@H](CC(C)C)N(C)C(=O)[C@@H](C)OC(=O)[C@H](CC(C)C)N(C)C2=O)cc1 [Example 1b-165, (3S,6R,9S,12R,15S,18R,21S,24R)-6,18-bis(4-((5-ethyl-1H-pyrazol-1-yl)methyl)benzyl)-3,9,15,21-tetraisobutyl-4,10,12,16,22,24-hexamethyl-1,7,13,19-tetraoxa-4,10,16,22-tetraazacyclotetracosan-2,5,8,11,14,17,20,23-octaone] | 0.001 to 0.01 µM | ≤ 1 µM | 0.0001 to 0.001 µM
4 | CCc1cc(C)n(Cc2ccc(C[C@H]3OC(=O)[C@H](CC(C)C)N(C)C(=O)[C@@H](C)OC(=O)[C@H](CC(C)C)N(C)C(=O)[C@@H](Cc4ccc(Cn5nc(C)cc5CC)cc4)OC(=O)[C@H](CC(C)C)N(C)C(=O)[C@@H](C)OC(=O)[C@H](CC(C)C)N(C)C3=O)cc2)n1 [Example 1b-186, (3S,6R,9S,12R,15S,18R,21S,24R)-6-(4-((5-ethyl-3-methyl-1H-pyrazol-1-yl)methyl)benzyl)-18-(4-((3-ethyl-5-methyl-1H-pyrazol-1-yl)methyl)benzyl)-3,9,15,21-tetraisobutyl-4,10,12,16,22,24-hexamethyl-1,7,13,19-tetraoxa-4,10,16,22-tetraazacyclotetracosan-2,5,8,11,14,17,20,23-octaone] | 0.01 to 0.1 µM | 1 to 10 µM | 0.0001 to 0.001 µM
5 | CCc1cc(C)nn1Cc1ccc(C[C@H]2OC(=O)[C@H](CC(C)C)N(C)C(=O)[C@@H](C)OC(=O)[C@H](CC(C)C)N(C)C(=O)[C@@H](Cc3ccc(Cn4nc(C)cc4CC)cc3)OC(=O)[C@H](CC(C)C)N(C)C(=O)[C@@H](C)OC(=O)[C@H](CC(C)C)N(C)C2=O)cc1 [Example 1b-187, (3S,6R,9S,12R,15S,18R,21S,24R)-6,18-bis(4-((5-ethyl-3-methyl-1H-pyrazol-1-yl)methyl)benzyl)-3,9,15,21-tetraisobutyl-4,10,12,16,22,24-hexamethyl-1,7,13,19-tetraoxa-4,10,16,22-tetraazacyclotetracosan-2,5,8,11,14,17,20,23-octaone] | 0.01 to 0.1 µM | 1 to 10 µM | 0.001 to 0.01 µM
6 | COc1ccc(-c2ccnn2Cc2ccc(C[C@H]3OC(=O)[C@H](CC(C)C)N(C)C(=O)[C@@H](C)OC(=O)[C@H](CC(C)C)N(C)C(=O)[C@@H](Cc4ccc(Cn5nccc5-c5ccc(OC)nc5)cc4)OC(=O)[C@H](CC(C)C)N(C)C(=O)[C@@H](C)OC(=O)[C@H](CC(C)C)N(C)C3=O)cc2)cn1 [Example 1b-190, (3S,6R,9S,12R,15S,18R,21S,24R)-3,9,15,21-tetraisobutyl-6,18-bis(4-((5-(6-methoxypyridin-3-yl)-1H-pyrazol-1-yl)methyl)benzyl)-4,10,12,16,22,24-hexamethyl-1,7,13,19-tetraoxa-4,10,16,22-tetraazacyclotetracosan-2,5,8,11,14,17,20,23-octaone] | 0.001 to 0.01 µM | 1 to 10 µM | 0.0001 to 0.001 µM
7 | CCOc1cnn(Cc2ccc(C[C@H]3OC(=O)[C@H](CC(C)C)N(C)C(=O)[C@@H](C)OC(=O)[C@H](CC(C)C)N(C)C(=O)[C@@H](Cc4ccc(Cn5ncc(OCC)c5C)cc4)OC(=O)[C@H](CC(C)C)N(C)C(=O)[C@@H](C)OC(=O)[C@H](CC(C)C)N(C)C3=O)cc2)c1C [Example 1b-197, (3S,6R,9S,12R,15S,18R,21S,24R)-6,18-bis[[4-[(4-ethoxy-5-methyl-pyrazol-1-yl)methyl]phenyl]methyl]-3,9,15,21-tetraisobutyl-4,10,12,16,22,24-hexamethyl-1,7,13,19-tetraoxa-4,10,16,22-tetrazacyclotetracosane-2,5,8,11,14,17,20,23-octaone] | 0.001 to 0.01 µM | 1 to 10 µM | 0.001 to 0.01 µM
8 | COCOc1cnn(Cc2ccc(C[C@H]3OC(=O)[C@H](CC(C)C)N(C)C(=O)[C@@H](C)OC(=O)[C@H](CC(C)C)N(C)C(=O)[C@@H](Cc4ccc(Cn5cc(OCOC)cn5)cc4)OC(=O)[C@H](CC(C)C)N(C)C(=O)[C@@H](C)OC(=O)[C@H](CC(C)C)N(C)C3=O)cc2)c1 [Example 1b-201, (3S,6R,9S,12R,15S,18R,21S,24R)-3,9,15,21-tetraisobutyl-6,18-bis[[4-[[4-(methoxymethoxy)pyrazol-1-yl]methyl]phenyl]methyl]-4, 10,12,16,22,24-hexamethyl-1,7,13,19-tetraoxa-4,10,16,22-tetrazacyclotetracosane-2,5,8,11,14,17,20,23-octaone] | 0.001 to 0.01 µM | 1 to 10 µM | 0.001 to 0.01 µM
9 | COCCOc1cnn(Cc2ccc(C[C@H]3OC(=O)[C@H](CC(C)C)N(C)C(=O)[C@@H](C)OC(=O)[C@H](CC(C)C)N(C)C(=O)[C@@H](Cc4ccc(Cn5cc(OCCOC)cn5)cc4)OC(=O)[C@H](CC(C)C)N(C)C(=O)[C@@H](C)OC(=O)[C@H](CC(C)C)N(C)C3=O)cc2)c1 [Example 1b-203, (3S,6R,9S,12R,15S,18R,21S,24R)-3,9,15,21-tetraisobutyl-6,18-bis[[4-[[4-(2-methoxyethoxy)pyrazol-1-yl]methyl]phenyl]methyl]-4,10,12,16,22,24-hexamethyl-1,7,13,19-tetraoxa-4,10,16,22-tetrazacyclotetracosane-2,5,8,11,14,17,20,23-octaone] | 0.001 to 0.01 µM | 10 to 100 µM | 0.001 to 0.01 µM

Source: US11331369B2, “Endoparasitic depsipeptides” (Zoetis Services LLC, priority 2017, dated 2022)
